Assay results as given in patent US20220071941A1, “THERAPIES FOR SQUAMOUS CELL CARCINOMAS” (Kura Oncology, Inc., priority 2018, published 2022).

Test system: squamous head and neck cancer with HRAS mutations
Experiment: Phase II study of tipifarnib in subjects with HRAS mutant tumors (HNSCC cohort)
Assay type: in vivo, human
Method: A Phase II study was performed that investigated the antitumor activity, in terms of objective response rate, of tipifarnib in subjects with locally advanced, unresectable or metastatic, relapsed and/or refractory tumors that carry HRAS mutations and for whom there is no curative therapy available. Subjects were men and women over 18 years of age.
Inclusion criteria of the study were as follows: histologically or cytologically confirmed diagnosis of thyroid cancer (cohort 1) or squamous head and neck cancer (cohort 2) for which there is no curative therapy available; tumor that carries a missense HRAS mutation; subject consents to provide at least 10 unstained tumor slides for retrospective testing of HRAS gene tumor status; subject has measurable disease according to RECIST v1.1 and has relapsed or is refractory to prior therapy; at least 2 weeks since the last systemic therapy or radiotherapy regimen prior to enrolment; ECOG PS 0 or 1; acceptable liver function; acceptable renal function; and acceptable hematologic status.
Exclusion criteria of the study were as follows: prior treatment with an FTase inhibitor; history of relevant coronary heart disease or myocardial infarction within last 3 years, NYHA Grade III or greater congestive heart failure, cerebro-vascular attack within the prior year, or serious cardiac arrhythmia requiring medication except atrial fibrillation; known uncontrolled brain, leptomeningeal or epidural metastases (unless treated and well controlled for at least 4 weeks prior to Cycle 1 Day 1); controlled brain metastases that require continuous high dose corticosteroid use within 4 weeks of Day 1; non-tolerable>Grade 2 neuropathy or evidence of unstable neurological symptoms within 4 weeks first dose; major surgery, other than diagnostic surgery, within 4 weeks prior to first dose, without complete recovery; active, uncontrolled bacterial, viral, or fungal infections, requiring systemic therapy; or known infection with HIV, or an active infection with hepatitis B or hepatitis C.
The study comprised 36 participants and subjects were enrolled into two nonrandomized cohorts as follows: Cohort 1 was comprised of patients with malignant thyroid tumors with HRAS mutations; Cohort 2 was comprised of patients with squamous head and neck cancer with HRAS mutations. Patients received tipifarnib at a starting dose of 600-900 mg orally twice daily on days 1-7 and 15-21 of 28-day cycles.
The primary outcome measurement of the study was objective response rate. Additionally, progression-free survival, duration of response, and the number of subjects with adverse events and serious adverse events were also recorded as secondary outcome measures. Adverse events and serious adverse events were graded according to the NCI-CTCAE (Version 4.03).
Upon meeting the primary objective (objective response rate), the study was amended to continue enrollment of HNSCC patients (Cohort 2) in addition to patients with other SCCs (Cohort 3). These patients had tumors carrying high HRASm variant allele frequency (VAF >35% or if baseline serum albumin is >3.5 g/dL)

[1] = of the 15 HNSCC patients meeting HRASm VAF criteria

## Cn1cncc1[C@@](N)(c1ccc(Cl)cc1)c1ccc2c(c1)c(-c1cccc(Cl)c1)cc(=O)n2C [tipifarnib]
15 HNSCC patients meeting HRASm VAF criteria, starting dose 600-900 mg orally twice daily on days 1-7 and 15-21 of 28-day cycles
  overall response rate: 53%
95% CI 1.6 to 5.4 months
  median progression-free survival (PFS), patients experiencing SD: 4.5 months
95% CI 5.3 to 19.5 months
  median progression-free survival (PFS), patients experiencing a PR: 19 months
N=15, 95% CI 4.5 to 19.5 months
  overall median progression-free survival (PFS): 5.4 months
Graded according to NCI-CTCAE Version 4.03
  patients with at least 1 treatment-emergent adverse event (TEAE): All patients
Occurring in ≥10% patients
  most frequently observed drug-related Grade >3 TEAEs: blood and lymphatic system disorders, gastrointestinal disorders, and renal disorders
[1]
  confirmed partial responses (PR), number of patients: 8
  stable disease (SD), number of patients: 5
